Data as given in patent US12617772B2, “Hydroxypyridine HSD17B13 inhibitors and uses thereof” (INIPHARM, INC., priority 2021, dated 2026).

Target: T1, HSD17B13 (Homo sapiens, UniProt Q7Z5P4)
T1 construct: His; made in house; host or cells: E. coli
T1 sequence (Q7Z5P4 20-300): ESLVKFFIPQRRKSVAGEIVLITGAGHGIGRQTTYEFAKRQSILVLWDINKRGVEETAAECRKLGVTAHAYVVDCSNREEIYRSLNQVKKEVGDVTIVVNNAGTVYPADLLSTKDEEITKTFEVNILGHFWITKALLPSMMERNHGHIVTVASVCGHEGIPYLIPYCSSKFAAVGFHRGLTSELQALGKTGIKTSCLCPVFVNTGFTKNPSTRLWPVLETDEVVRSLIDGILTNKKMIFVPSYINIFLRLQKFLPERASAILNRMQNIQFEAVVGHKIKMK
Test: LC/MS estrone detection assay: conversion of estradiol to estrone by HSD17B13
Type: biochemical
Details: 4 μM estradiol, 6 mM NAD, 30 nM HSD17B13 enzyme (E. coli expressed His-tagged), 2 hours at 26.5° C.
Protocol: Example A: Estrone Detection Assay for Evaluation of HSD17ß13 Activity and Identification of Inhibitors
The liquid chromatography/mass spectrometry (LC/MS) estrone detection assay monitors the conversion of estradiol to estrone by HSD17B13. This assay was undertaken in a 96 wp format (Eppendorf deep well Plate 96/500) in an 80 μl reaction volume containing: 4 μM of Estradiol (E2; Cayman; #10006315), 6 mM NAD (Sigma; #N0623) and 30 nM HSD17B13 enzyme (in-house; E. coli expressed His-tagged, purified, soluble protein) in a reaction containing […] potassium phosphate buffer pH 7.4, with 0.5% vehicle (DMSO). Reactions were incubated for 2 hours at 26.5° C., and estradiol (E2) conversion to estrone (E1) was quantitated by LC-MS/MS based analyte detection for both E2 and E1 using LCMS grade reagents.
Reactions were terminated by the addition of two volumes of acetonitrile (MeCN: LCMS grade; CAS #75/05/8) containing deuterated (D4)-E1 used as internal standard (Clear Synth: #CS-T-54273; 500 ng/ml final concentration). Samples were applied to pre-prepared Bond Elut-C18 extraction cartridges (3 mL; Agilent; #12102028), washed and eluted in MeCN. Eluates were dried under nitrogen and re-suspended in 60% methanol (LCMS grade methanol; CAS #67/56/1) before submission for analysis. Aqueous linearity for E2 and E1 were included for quantification.
Analysis of samples was undertaken on a XBridge BEH C18 column (Waters; #186003033) using 0.1% Diethyl Amine in MeCN (mobile phase A; DEA CAS #109-89-7) and 0.1% Diethyl Amine in milli-Q water (mobile phase B) in a 3 min gradient allowing 25% B. Analytes were detected in negative mode using MRM analysis, with E2 having a RT of 1.85 min and E1 having a RT of 2 min. Activity of the enzyme, in the absence of NAD^+, was used to evaluate specificity of conversion. Enzyme activity in the presence of test samples was expressed as a percentage of the uninhibited enzyme activity, and plotted versus inhibitor concentration. Non-linear regression was performed using a four-parameter logistic model and GraphPad Prism software (GraphPad Software, La Jolla, CA). All assessments were undertaken in duplicate evaluations and pooled during extraction process and subsequently injected as duplicates for LC-MS/MS analysis.

| IC50 | SMILES |
| --- | --- |
| 100 to 500 nM | O=C(Nc1cccc2ncn(CCc3ccccc3C(F)(F)F)c(=O)c12)c1ccc(O)c(C(F)(F)F)n1 [Example 2, 5-hydroxy-N-(4-oxo-3-(2-(trifluoromethyl)phenethyl)-3,4-dihydroquinazolin-5-y1)-6-(trifluoromethyl)picolinamide] |
| ≤ 100 nM | O=C(Nc1cccc2ncn(CCc3ccccc3OC(F)(F)F)c(=O)c12)c1ccc(O)c(C(F)(F)F)n1 [Example 1, 5-hydroxy-N-(4-oxo-3-(2-(trifluoromethoxy)phenethyl)-3,4-dihydroquinazolin-5-yl)-6-(trifluoromethyl)picolinamide] |
| ≤ 100 nM | COc1ccccc1CCn1cnc2cccc(NC(=O)c3ccc(O)c(C(F)(F)F)n3)c2c1=O [Example 6, 5-hydroxy-N-(3-(2-methoxyphenethyl)-4-oxo-3,4-dihydroquinazolin-5-yl)-6-(trifluoromethyl) picolinamide] |

More lines, now with the values behind:

| SMILES | IC50 |
| --- | --- |
| CC(C)(C)CCNC(=O)c1sccc1NC(=O)c1ccc(O)c(C(F)(F)F)n1 [Example 5, N-(2-((3,3-dimethylbutyl)carbamoyl)thiophen-3-y1)-5-hydroxy-6-(trifluoromethyl) picolinamide] | ≤ 100 nM |
| O=C(Nc1cc(Cl)sc1C(=O)NCCc1ccccc1OC(F)(F)F)c1ccc(O)c(C(F)(F)F)n1 [Example 7, N-(5-chloro-2-((2-(trifluoromethoxy)phenethyl)carbamoyl)thiophen-3-y1)-5-hydroxy-6-(trifluoromethyl)picolinamide] | 100 to 500 nM |
| O=C(Nc1cccc2ncn(Cc3ccccc3OC(F)(F)F)c(=O)c12)c1ccc(O)c(C(F)(F)F)n1 [Example 3, 5-hydroxy-N-(4-oxo-3-{[2-(trifluoromethoxy)phenyl]methyl}-3,4-dihydroquinazolin-5-yl)-6-(trifluoromethyl) pyridine-2-carboxamide] | ≤ 100 nM |
